{"source": "paper PMC10637841", "about": "“Evaluation of Antioxidant and Anti-Inflammatory Activities, and Metabolite Profiling of Selected Medicinal Plants of Nepal” (Journal of Tropical Medicine, 2023)", "key": {"[1]": {"test_system": "human red blood cells (HRBC) membrane", "assay": "HRBC membrane stabilization (heat-induced hemolysis)", "assay_type": "cell-based", "conditions": "Erythrocyte, read-out: HRBC membrane stabilization IC50", "description": "(1) Erythrocyte Suspension. With few modifications, the erythrocyte suspension was prepared using the technique outlined by Pieroni et al.. Healthy human volunteers provided the blood sample, which was centrifuged for 10 minutes at 1500 rpm. The red blood cell (RBC) pallet was washed three times with PBS (pH 7.4) following centrifugation. The buffy coat and supernatant liquid were aspirated out following each wash. The RBCs were resuspended in PBS at a concentration of 20% (v/v). (2) Heat-Induced Hemolysis. The method explained by Gunathilake et al. was used to determine the heat-induced hemolysis with some modifications. […] Then, the mixture was incubated for 20 minutes at 54°C in the water bath with continuous shaking. The mixture was incubated and centrifuged at 2500 rpm for 3 minutes. By using a UV spectrophotometer, the absorbance of supernatant was measured at 540 nm. In the experiment, PBS will be used as blank."}, "[2]": {"assay": "Ferrous (Fe2+) ion chelating activity", "assay_type": "biochemical", "conditions": "ethanolic leaf extract 100-2000 μg/mL; mean ± SEM", "description": "(§1) The antioxidant activity of twelve plant extracts was estimated by using various methods, including (2, 2-diphenyl-1-picrylhidrazyl) DPPH free radical scavenging activity, ferrous (Fe^2+) ion chelating agent, ferric (Fe^3+) ion reducing power, nitric oxide (NO^−) scavenging activity, hydroxyl radical scavenging activity, hydrogen peroxide scavenging activity, and total antioxidant activity."}, "[3]": {"assay": "Nitric oxide (NO) scavenging activity", "assay_type": "biochemical", "conditions": "ethanolic leaf extract 100-2000 μg/mL; mean ± SEM", "description": "as §1"}, "[4]": {"assay": "Hydroxyl radical scavenging activity", "assay_type": "biochemical", "conditions": "ethanolic leaf extract 100-2000 μg/mL; mean ± SEM", "description": "as §1"}, "[5]": {"assay": "Ferric (Fe3+) ion reducing power", "assay_type": "biochemical", "conditions": "ethanolic leaf extract 100-2000 μg/mL; mean ± SEM", "description": "as §1\nThe ferric ion-reducing antioxidant power assay of twelve plant extracts was carried out. The activity was confirmed when the color of the solution was changed from yellow to green and Prussian blue based on the reduction property of extracts and standard, which was measured at 700 nm wavelength using a UV spectrophotometer. The absorbance value was increased with the increasing concentration of plant extract (Table 4)."}, "[6]": {"assay": "Total antioxidant activity (phosphomolybdenum)", "assay_type": "biochemical", "conditions": "ethanolic leaf extract 100-2000 μg/mL; mean ± SEM", "description": "as §1"}, "[7]": {"assay": "Hydrogen peroxide scavenging activity", "assay_type": "biochemical", "conditions": "ethanolic leaf extract 100-2000 μg/mL; mean ± SEM", "description": "as §1"}, "[8]": {"assay": "DPPH free radical scavenging activity", "assay_type": "biochemical", "conditions": "ethanolic leaf extract 100-2000 μg/mL; mean ± SEM", "description": "as §1"}, "rats": {"test_system": "rats", "set-up": "method as in PMID 32061742", "conditions": "rats, 25, 50, and 100 mg/kg; ref [7]; cited from earlier work"}, "[9]": {"conditions": "ethanolic leaf extract 100-2000 μg/mL"}}, "note": "Read-outs that look alike come from different tables or passages of the source.", "data": [{"smiles": "O=C(O)COC(=O)Cc1ccccc1Nc1c(Cl)cccc1Cl", "note": "[Aceclofenac, aceclofenac]", "values": [{"measurement": "IC50", "setting": "[1]; [9]", "value": "21.9 ± 2.34", "unit": "µg/mL"}]}, {"smiles": "O=C1O[C@H]([C@@H](O)CO)C(O)=C1O", "note": "[Ascorbic acid]", "values": [{"measurement": "Ferrous ion chelating IC50", "setting": "[2]", "value": "3.68 ± 0.59", "unit": "µg/mL"}, {"measurement": "Nitric oxide scavenging IC50", "setting": "[3]", "value": "3.91 ± 0.80", "unit": "µg/mL"}, {"measurement": "Hydroxyl radical scavenging IC50", "setting": "[4]", "value": "4.75 ± 0.43", "unit": "µg/mL"}, {"measurement": "Ferric reducing IC50", "setting": "[5]", "value": "2.47 ± 0.40", "unit": "µg/mL"}, {"measurement": "Total antioxidant activity IC50", "setting": "[6]", "value": "2.87 ± 0.10", "unit": "µg/mL"}, {"measurement": "H2O2 scavenging IC50", "setting": "[7]", "value": "3.31 ± 0.58", "unit": "µg/mL"}, {"measurement": "DPPH scavenging IC50", "setting": "[8]", "value": "4.54 ± 0.98", "unit": "µg/mL"}]}, {"smiles": "CC(=O)Oc1ccccc1C(=O)O", "note": "[Aspirin, aspirin]", "values": [{"measurement": "IC50", "setting": "[1]; [9]", "value": "21.3 ± 0.43", "unit": "µg/mL"}]}, {"smiles": "COc1ccc(O)c(C(C)(C)C)c1", "note": "[BHA, Butylated Hydroxyl Annisole]", "values": [{"measurement": "Nitric oxide scavenging IC50", "setting": "[3]", "value": "5.58 ± 0.68", "unit": "µg/mL"}, {"measurement": "Ferric reducing IC50", "setting": "[5]", "value": "3.02 ± 0.30", "unit": "µg/mL"}]}, {"smiles": "Cc1cc(C(C)(C)C)c(O)c(C(C)(C)C)c1", "note": "[BHT, Butylated Hydroxyl Toulene]", "values": [{"measurement": "Ferrous ion chelating IC50", "setting": "[2]", "value": "2.81 ± 0.82", "unit": "µg/mL"}, {"measurement": "Hydroxyl radical scavenging IC50", "setting": "[4]", "value": "2.90 ± 0.98", "unit": "µg/mL"}, {"measurement": "H2O2 scavenging IC50", "setting": "[7]", "value": "2.89 ± 0.32", "unit": "µg/mL"}, {"measurement": "DPPH scavenging IC50", "setting": "[8]", "value": "2.90 ± 0.51", "unit": "µg/mL"}]}, {"smiles": "Cc1ccc(-c2ncc(Cl)cc2-c2ccc(S(C)(=O)=O)cc2)cn1", "note": "[Etoricoxib, etoricoxib]", "values": [{"measurement": "IC50", "setting": "[1]; [9]", "value": "11 ± 1.65", "unit": "µg/mL"}]}, {"smiles": "COc1ccc2c(c1)c(CC(=O)O)c(C)n2C(=O)c1ccc(Cl)cc1", "note": "[Indomethacin, indomethacin]", "values": [{"measurement": "IC50", "setting": "[1]", "value": "7.14 ± 0.31", "unit": "µg/mL"}]}, {"smiles": "C=C1CC[C@@H]2[C@](C)(CO)[C@H](O)CC[C@@]2(C)[C@@H]1C/C=C1/C(=O)OC[C@H]1O", "note": "[andrographolide]", "values": [{"measurement": "Concentration of catalase, superoxide dismutase, and glutathione (antioxidant enzymes)", "setting": "rats", "value": "increase"}, {"measurement": "Level of articular elastase, TNF-α, IL-6, CXC chemokine ligand 2, and myeloperoxidase", "setting": "rats", "value": "decrease"}]}]}
